Data on 13 compounds can be found in publication PMC4707132 (Journal of medicinal chemistry, 2015).

The target in experiment [1] is T1, Mcl-1 (Homo sapiens, UniProt Q07820). Briefly: fluorescence polarization competition assay. The format is binding.
A further experiment in a line: in vitro cellular assay. It counts as cell-based.
Experiment [2] addresses T1, Mcl-1. Nature of the experiment: bio-layer interferometry. It counts as binding. Particulars: label-free BLI.
For experiment [3], the target named is T1, Mcl-1. Briefly: surface plasmon resonance. The format is binding.
Experiment [4] addresses T1, Mcl-1. Briefly: HSQC chemical shift mapping. The format is binding.

T1 sequence (Q07820 whole entry): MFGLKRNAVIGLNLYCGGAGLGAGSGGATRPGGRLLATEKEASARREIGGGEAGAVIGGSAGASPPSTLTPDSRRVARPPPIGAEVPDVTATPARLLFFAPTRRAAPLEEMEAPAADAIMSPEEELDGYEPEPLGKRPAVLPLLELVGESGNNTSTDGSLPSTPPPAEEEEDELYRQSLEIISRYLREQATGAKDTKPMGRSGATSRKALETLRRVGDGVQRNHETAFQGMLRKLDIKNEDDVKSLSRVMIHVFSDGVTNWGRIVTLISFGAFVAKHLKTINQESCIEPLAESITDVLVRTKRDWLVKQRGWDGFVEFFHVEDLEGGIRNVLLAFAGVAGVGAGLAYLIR

Turning to `COc1cc(/C=C/C(=O)c2ccc(OC)c(OC)c2OC)cc(Cl)c1O` [Compound D1], the “potency of Mcl-1 inhibition relative to M0” value on Mcl-1 [1] is recorded as “about 7 fold”.

Consider `COc1ccc(C(=O)/C=C/c2cc(F)c(O)c(Cl)c2)c(OC)c1OC` [Compound D2], for which the “potency of Mcl-1 inhibition relative to M0” value at Mcl-1 [1] was “about 7 fold”. The “biological effect in cells” value in the experiment “in vitro cellular assay” is “does not exert the desired biological effect”.

For `COc1ccc(C(=O)/C=C/c2cc(F)c(O)c(Cl)c2)cc1` [Compound D3], on Mcl-1 [1], the “activity relative to D1” value is given as “reduced activity” and the “potency relative to M0” value is listed as “potency exceeding that of M0”.

Consider `COc1ccc(C(=O)/C=C/c2cc(Cl)c(O)c(OC)c2)cc1` [Compound D4], for which the “potency relative to M0” value on Mcl-1 [1] was “potency exceeding that of M0”.

As to `COc1ccc(C(=O)/C=C/c2ccc(O)c(F)c2)c(OC)c1OC` [Compound D5], at Mcl-1 [1], the “activity relative to D1” value is reported as “reduced activity” and the “potency relative to M0” value was “very similar inhibition constant as M0”.

As to `COc1cc(C(=O)/C=C/c2ccc(O)cc2)c(O)c(OC)c1OC` [Compound D7], the “potency relative to M0” value on Mcl-1 [1] was “less potent than M0”.

Turning to `COc1ccc(/C=C/C(=O)c2cc(OC)c(OC)c(OC)c2O)cc1` [Compound D12], the “potency relative to M0” value on Mcl-1 [1] is “less potent than M0”.

For `COc1cc(C(=O)/C=C/c2ccc(C(F)(F)F)cc2)c(O)c(OC)c1OC` [Compound D13], the “potency relative to M0” value on Mcl-1 [1] is listed as “less potent than M0”.

On to `COc1cc(C(=O)/C=C/c2ccc([N+](=O)[O-])cc2)c(O)c(OC)c1OC` [Compound D14], for which the “potency relative to M0” value at Mcl-1 [1] was “less potent than M0”.

On to `COc1cc(O)c(C(=O)/C=C/c2ccc(O)c(OC)c2)c(OC)c1` [Compound M0, 2’,4-dihydroxy-3,4’,6’-trimethoxychalcone], for which the “direct binding to Mcl-1” value on Mcl-1 [2] is “confirmed the activity”. For the same compound, the SPR response result on Mcl-1 [3] is “did not exhibit super-stoichiometric behavior”. Also, the HSQC spectrum result on Mcl-1 [4] is given as “small number of distinct chemical shift differences”.

In turn, `Cc1c(/C=N/N2C=Nc3c([nH]c4ccccc34)C2)c(=O)oc2c3c4c(cc12)CCCN4CCC3` [Compound M1] returned a Ki on Mcl-1 [1] of 1.2 µM. Further, on Mcl-1 [2], the “direct binding to Mcl-1” value is recorded as “confirmed the activity”.

As to `C[C@@]12CC[C@@H]3[C@H](CCC4=CC(=O)CC[C@H]43)[C@H]1CC[C@H]2OC1(O)C(=O)c2ccccc2C1=O` [Compound M5], at Mcl-1 [2], the “direct binding to Mcl-1” value was “confirmed the activity”.

With `c1cc2c(cc1[C@H]1OC[C@H]3[C@H]1CO[C@H]3c1ccc3c(c1)OCO3)OCO2` [Compound M7], the “direct binding to Mcl-1” value at Mcl-1 [2] is reported as “confirmed the activity”.

One may read the Ki as the dissociation constant of the complex between target and ligand, obtained from inhibition or displacement. Read a high Ki as lower affinity.
